Measurements from patent US9896482B2, “Beta hairpin peptides having antiviral properties against Dengue virus” (CENTRO DE INGENIERÍA GENÉTICA Y BIOTECNOLOGÍA, priority 2014, dated 2018).
Read-outs that look alike come from different tables or passages of the source. Where a SMILES comes first, the peptide text is derived from it. Bridges are numbered along the chain shown (N, C = ends). [ ]: non-standard residue; d: D form.

Legend:
[1] = system: DENV serotype 2 (NIBSC code S16803); assay: Plaque reduction assay in Vero cells, DENV2; format: cell-based, Dengue virus
Protocol: (§1) The cells were grown in 24 well plates until the monolayer reached approximately 90% confluence, after which they were washed twice with MEM medium without Fetal Bovine Serum (FBS). Then, peptide dilutions were added and the cell-peptide mixtures were incubated typically for 1 hour at 37° C., followed by the addition of a DENV serotype 2 preparation (NIBSC code S16803) at a multiplicity of infection (m.o.i.) of 0.001. The cells were then incubated for 1 hour at 37° C., and once the period of incubation with the viral inoculum concluded, were washed again to remove unbound virions and incubated for 5 days at 37° C. in high density medium (MEM supplemented with non-essential amino acids, 1% FBS, 1% carboxymethylcellulose) in order to let viral plaques form. Afterwards, the cells were stained with 0.1% Naphtol Blue Black in 0.15 M sodium acetate. Two replicates per experimental point were used in each assay, and three independent determinations were performed for each sample.
Next, it was decided to compare the antiviral activity of peptides PHB4 and HDIII3CL against all four DENV serotypes, with the objective of comparing their respective IC50 values. This comparison was performed with plaque reduction assays on Vero cells, adding the viral inoculum for each serotype (DENV1, NIBSC code West Pac 74, DENV2, NIBSC, code S16803; DENV3, NIBSC, code CH53489; DENV 4, NIBSC code TVP360) at a m.o.i. of 0.001.

[2] = system: DENV1 (NIBSC code West Pac 74); assay: Plaque reduction assay in Vero cells, DENV1; format: cell-based, Dengue virus; settings: m.o.i. 0.001, read-out: Antiviral activity IC50 vs DENV1
Protocol: as §1
(§2) Next, it was decided to compare the antiviral activity of peptides PHB4 and HDIII3CL against all four DENV serotypes, with the objective of comparing their respective IC50 values. […]

[3] = system: DENV3 (NIBSC code CH53489); assay: Plaque reduction assay in Vero cells, DENV3; format: cell-based, Dengue virus; settings: m.o.i. 0.001, read-out: Antiviral activity IC50 vs DENV3
Protocol: as §1, §2

[4] = system: DENV 4 (NIBSC code TVP360); assay: Plaque reduction assay in Vero cells, DENV4; format: cell-based, Dengue virus; settings: m.o.i. 0.001, read-out: Antiviral activity IC50 vs DENV4
Protocol: as §1, §2

[5] = Toxicity in Vero cells (MTT assay and manual cell counting); format: cell-based; settings: ‡ non toxic at 1000 μM, read-out: Ctox50
Protocol: (§3) The toxicity of the beta hairpin peptides was assessed with the MTT (3-(4,5-dimethylthiazol-2-yl)-2,5-diphenyltetrazolium bromide, Invitrogen, USA) assay (Mosmann, T. (1983). J. Immunol. Methods 65, 55-63.), and by manual cell counting using a Neubauer chamber. Ninety-six well plates (Costar, USA) were seeded with 200 μL/well of a suspension containing Vero cells at 1×10^5 cells/mL and incubated until the monolayers reached approximately 90% confluence, typically for 18-24 h. After washing the cells twice with DMEM (Dulbecco's Modified Eagle Medium) medium, 50 μL/well were added of the peptide or additive dilutions to be evaluated (Triton ^X-100™ dissolved in PBS was used as positive toxicity control) and the plates were incubated at 37° C. under a 5% CO2 atmosphere for 2 or 24 h. Two different procedures were then employed to measure toxicity: • a) A 2 mg/mL solution of MTT in PBS was added (50 μL/well) and the plates were incubated for further 4 h at 37° C., 5% CO2. The medium was then removed, and 100 μL/well of DMSO were then added to solubilize formazan precipitates. Finally, the optical density (OD) of the supernatants at a wavelength of 540 nm was measured using a plate reader (Sensident Scan™, Merck, Germany). • b) The plates were washed with 200 μL/well of DMEM medium and then a trypsin solution (Sigma, USA) was added at 50 μL/well. After inactivating the trypsin by adding 150 μL/well of DMEM supplemented with 10% FBS, the cells were counted using the Trypan Blue (Gibco, USA) vital stain. The data were processed using the statistical software package Prism v5.3 (GraphPad, USA), using non-linear regression to fit them to a log10 (concentration) vs response curve.

Vero cells = assay: as above; format: cell-based; settings: ‡ non toxic at 1000 μM
Protocol: as §3

sLRP1-CIV [6] = molecular target: T1, sLRP1-CIV (Homo sapiens, UniProt Q07954); assay: Biacore (SPR) binding to immobilized sLRP1-CIV; settings: double site model, maximum RU vs. concentration
T1 construct: purchased R&D Systems, USA
Protocol: The interaction of the beta hairpin peptides with soluble fragments of the LRP1 receptor was studied by Surface Plasmon Resonance (SPR), using a Biacore X unit. In this technique, one of the interaction partners to be studied is immobilized on the surface of a chip, and the other interaction partner is dissolved in a solution that runs through the measurement cell on top of the interaction surface, under conditions of controlled flow. The association and dissociation of interacting partners is measured in resonance units (RU) and plotted, as a function of time, on charts known as ‘sensorgrams’. SPR, therefore, enables the experimenter to obtain detailed information about the interaction without having to label either interaction partner.
In this example, one channel of a CM5 chip (GE Healthcare, USA) was used to immobilize protein sLRP1-CIV on its surface at high density (see Table 6) and recombinant Human Serum Albumin (rHSA, Sigma-Aldrich, USA) was immobilized on the other channel.
Although it was decided to immobilize sLRP1-CIV at high density because these conditions make easier the detection of any potential interactions with compounds whose molecular weight is lower than that of average proteins (such as the peptides this experiment is intended to study), it must be stressed that in high-density surfaces, mass transfer limitations and the possibility of multivalent binding make difficult the accurate determination of kinetic constants. Therefore, and in order to characterize in greater detail the sLRP1-CIV binding surface, different RAP dilutions (0.6-20 μM) were loaded, and RU were registered under conditions of interaction equilibria (250 sec, see FIG. 13B). […] The data also indicate that immobilized sLRP1-CIV faithfully reproduces the previously reported characteristics of the LRP1-RAP interaction.
The binding of beta hairpin peptides to sLRP1-CIV was studied by loading 20 μM dilutions in running buffer of the different peptide variants onto the sLRP1-CIV chip characterized above. The high strength of the resulting signals is consistent with the binding of aggregated, rather than monomeric forms of the peptides. Therefore, the observed variations between different peptides may reflect either differences in the affinity of unitary peptide interactions or differences in aggregation numbers and/or geometries that lead to variations in the number of peptide units able to simultaneously engage immobilized sLRP1-CIV molecules in a multivalent manner. […] The difference between peptides HDIII3CL2 and HDIII3CL is that the former has an additional C-terminal lysine and has, therefore, a stronger cationic character, which may facilitate additional electrostatic interactions with the negatively charged LRP1 receptor.

sLRP1-CIV [7] = molecular target: T1, sLRP1-CIV; settings: other studies; read-out: Affinity of multi-point interaction with clusters II and IV of LRP1; cited from earlier work
[8] = DENV2, plaque reduction, NA = no detectable activity at concentrations lower than or equal to 100 μM, read-out: IC50, antiviral activity in Vero cells (50% inhibitory activity)

| Molecule | IC50 [1, 8] [µM] | IC50 ([1]; Vero cells, m.o.i. 0.001, read-out: Antiviral activity IC50 vs DENV2) [µM] | IC50 [2] [µM] | IC50 [3] [µM] | IC50 [4] [µM] | CC50 [5] [µM] | Ctox50 (Vero cells) | Kd (sLRP1-CIV [6]; read-out: Kd of high-affinity interaction) [µM] | Kd (sLRP1-CIV [6]; read-out: Kd of low-affinity interaction) [µM] | Kd (sLRP1-CIV [7]) [µM] |
| --- | --- | --- | --- | --- | --- | --- | --- | --- | --- | --- |
| CC[C@H](C)[C@@H]1NC(=O)CNC(=O)[C@H]([C@@H](C)CC)NC(=O)[C@H](C(C)C)NC(=O)[C@H]([C@@H](C)CC)NC(=O)[C@H](CC(N)=O)NC(=O)[C@H](CO)NC(=O)[C@@H](N)CSSC[C@@H](C(=O)N[C@@H](CCCCN)C(=O)N[C@@H](CCCCN)C(N)=O)NC(=O)[C@H](Cc2c[nH]c3ccccc23)NC(=O)[C@H](CC(N)=O)NC(=O)[C@H]([C@@H](C)CC)NC(=O)[C@H](CCCCN)NC(=O)[C@H](CC(C)C)NC(=O)[C@H](C)NC(=O)[C@H](CCCCN)NC(=O)[C@H](CC(=O)O)NC(=O)CNC1=O [HDIII3CL, reference compound] (H-CSNIVIGIGDKALKINWCKK-NH2; disulfide 1-18) | 20 | 20 | 15 | 20 | 50 | 1000 |  |  |  |  |
| CC[C@H](C)[C@@H]1NC(=O)[C@H](Cc2ccccc2)NC(=O)[C@H](Cc2c[nH]c3ccccc23)NC(=O)[C@H](CC(N)=O)NC(=O)[C@H](C(C)C)NC(=O)[C@H](CCCCN)NC(=O)[C@H](CCCCN)NC(=O)[C@H](CC(=O)O)NC(=O)[C@H]2CCCN2C(=O)[C@H](CCC(=O)O)NC(=O)[C@H]([C@@H](C)O)NC(=O)[C@H](Cc2c[nH]c3ccccc23)NC(=O)[C@H](CC(N)=O)NC(=O)[C@H](C(C)C)NC(=O)[C@H](CCC(=O)O)NC(=O)[C@H]([C@@H](C)CC)NC(=O)[C@@H](N)CSSC[C@@H](C(=O)N[C@@H](CCCCN)C(=O)N[C@@H](CCCCN)C(=O)N[C@@H](CCCCN)C(N)=O)NC1=O [PHB3] (H-CIEVNWTE[dP]DKKVNWFICKKK-NH2; disulfide 1-18) | 17 |  |  |  |  |  | >>1000^‡ μM |  |  |  |
| RAP: Receptor-Associated Protein, a known LRP1 ligand |  |  |  |  |  |  |  | 0.0042 | 1.1 | 0.006 to 0.018 |
